Data on 4 molecules can be found in US7053064B2, “Compounds for the treatment of tobacco dependence and withdrawal” (The McLean Hospital Corporation, priority 2002, dated 2006).

Like-named read-outs stand apart in the source and are kept apart here.

For data set [1] the following is noted: cited from earlier work.
The subject of a further data set is human subjects. Kind of data set: effects of citicoline on tobacco use (cigarettes smoked per day) versus placebo. The format is in vivo. Particulars: compared to placebo, FIG. 1. The text has this:
FIG. 1 is a graph of the effects of citicoline on tobacco use.

For data set [2] the following is noted: cited from earlier work. The source holds these as a separate data set.
For the next data set, the system named is mammals. Particulars: cited from earlier work.
For a further data set, the system named is humans. Conditions: cited from earlier work.
Where [3] appears, read: major excretion route, % of dose.

Take `C[N+](C)(C)CCOP(=O)(O)OP(=O)([O-])OC[C@H]1O[C@@H](n2ccc(N)nc2=O)[C@H](O)[C@@H]1O` [CDP-choline, cytidine 5′-diphosphocholine]: in data set [1] (% of dose), the “rest of the dose metabolized and retained in tissues” value is recorded as 83.9%. Further, the “conversion into circulating metabolites” value in data set [1] (administered either orally or intravenously) is “rapidly converted into the two major circulating metabolites, choline and cytidine”. Moreover, in data set [1] (setting [3]), the excretion via lung is reported as 12.9% and the excretion via urine was 2.4%. Besides, in data set [1] (orally administered), the “CDP-choline and/or its metabolites absorbed” value is “more than 99%” and the excreted in feces result is “less than 1%”. Besides, the “usage of tobacco (number of cigarettes smoked per day)” value in the data set on human subjects is “reduces the usage of tobacco”. Also, in data set [2] (in vivo), the “reported cases of overdoses” value is on record as “no reported cases of overdoses”. Besides, the “toxicity symptoms on ingestion of large amounts” value in data set [2] (preclinical studies, salivation, lacrimation, urination, defecation, vomiting) was “common cholinergic symptoms”. For the same molecule, the tolerability result in the data set on mammals (mammals) is “well tolerated”.

Turning to `CN(CC(=O)O)C(=N)N` [Creatine, creatine], the tolerability entry in the data set with humans is on record as “well tolerated at relatively high doses”.

As for `CC(=O)OC[C@H]1O[C@@H](n2ccc(=O)[nH]c2=O)[C@H](OC(C)=O)[C@@H]1OC(C)=O` [triacetyl uridine], the tolerability result in the data set with mammals (in vivo) is reported as “well tolerated”.

Regarding `O=c1ccn([C@@H]2O[C@H](CO)[C@@H](O)[C@H]2O)c(=O)[nH]1` [uridine], the tolerability result in the data set on humans and in the data set on mammals (mammals) was “well tolerated” each time.
